Holding throughout (assay): NCI tumour cell line growth inhibition, 48 h
Test [1] relates to T-47D breast.
Test [2] concerns MCF7 breast.
The test system of test [3] is MDA-MB-435.
In test [4] the test system is HS 578T breast.
The test system of test [5] is BT-549 breast.
Test [6] concerns DU-145 prostate.
In test [7] the test system is LXFL 529 NSCLC.
For test [8], the system named is RXF-631 renal.
For test [9], the system named is MDA-N.
Test [10] relates to P388/ADR leukemia.
In test [11] the test system is P388 leukemia.
Test [12] concerns SN12K1 renal.

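The compound was tested at five concentrations on cells cultured in 96-well plates, with a 48-hour exposure period. GI50 is the concentration that inhibits growth by half. TGI denotes the concentration required for complete inhibition of growth.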

On to `C[P+](c1ccccc1)(c1ccc(Cl)cc1)c1ccc(Cl)cc1`, for which the TGI in test [1] is 49.3 µM; in test [2] it was greater than 100 µM; in test [3], 18.7 µM; in test [4], 78.2 µM; in test [5] it was 68.3 µM; in test [6], 94.6 µM.

`C[n+]1c2ccccc2c(CNCC(=O)O)c2ccccc21` displayed a TGI in test [7] of 3.15 µM.

With `c1ccc(-c2n(Cc3ccc4ccccc4c3)c3ccccc3[n+]2Cc2ccc3ccccc3c2)cc1`, in test [3], the GI50 is 0.288 µM and the TGI was 1.06 µM. For the same molecule, in test [6], the GI50 was 0.441 µM and the TGI came out at 1.64 µM.

Consider `O=C(Nc1ccc(Cl)cc1)c1cc([N+](=O)[O-])ccc1O`, for which the TGI in [7] was 16.8 µM; in [8], greater than 45.7 µM.

Consider `C=CCNC1=C2C[C@@H](C)C[C@H](OC)[C@H](O)[C@@H](C)/C=C(\C)[C@H](OC(N)=O)[C@@H](OC)/C=C\C=C(/C)C(=O)NC(=CC1=O)C2=O`, for which the TGI amounted to 29.5 µM in test [1]; 16 µM in test [2]; 17 µM in test [3]; 15 µM in test [9]; 47.5 µM in [4]; 31.1 µM in test [5]. This molecule also displayed a TGI in test [6] of 7.33 µM.

Turning to `NC(CCP(=O)(O)O)C(=O)O` (stereo not drawn), the TGI in test [1], in test [3], in test [9], in test [4] and in test [5] was greater than 100 µM each time.

Turning to `O=C1c2cccc(O)c2C(=O)c2c(O)cccc21`, in [7], the TGI was greater than 100 µM.

On to `CCCCSCC(NC(=O)/C=C/c1c(C)[nH]c(=O)[nH]c1=O)C(=O)OC` (stereo not drawn), for which the TGI in [10] is greater than 450 µM; in test [2], 114 µM; in test [11], 137 µM; in [12], 173 µM.

In the case of `N=C(N)c1ccc(-c2ccc(-c3ccc4ccccc4c3)s2)s1`, the GI50 is 1.95 µM in [1]; 1.91 µM in [3]; 2.07 µM in [4]; 17.6 µM in [5]; 1.83 µM in test [6]. Moreover, the TGI is 4.52 µM in [1]; 4.08 µM in test [3]; 4.71 µM in test [4]; 46.8 µM in test [5]; 3.44 µM in test [6].

As to `CS(=O)(=O)c1ccc2nc(-c3ccc(O)cc3)sc2c1`, the TGI in test [2] amounted to 35.5 µM; in test [3] it was 37.8 µM; in test [9], 34.4 µM; in test [5] it was 30.5 µM; in test [6] it was 29.6 µM.

On to `CN(C)CCOc1cc2c(c3ccccc13)-c1ccccc1C2O` (stereo not drawn), for which the TGI in test [10] is 33.3 µM; in [2], 28.3 µM; in test [11], greater than 100 µM; in test [12], 19.5 µM.

With `CC1C[C@]2(C[C@@H](C)C(=O)O2)OC2CC3(C)C4CCC5C(C)(C)OC(=O)CC[C@@]56C[C@@]46CC[C@]3(C)C12` (stereo partly drawn), the TGI in test [7] and in test [8] was greater than 100 µM in each case.

Take `NC(=O)c1ccc([N+](=O)[O-])cc1`: the TGI in test [7] and in test [8] was greater than 100 µM each time.

The values are drawn from PubChem BioAssay (NCI).
